Results on 3 compounds are retold here after ChEMBL document CHEMBL5465560, “Selectivity Literature for EUbOPEN Chemogenomic Library” (2024).

Structures are written as SMILES.

Assay [1] addresses Serine/threonine-protein kinase N2 (Homo sapiens, UniProt Q16513). The experiment in a line: Selectivity interaction (KinomeScan (DiscoverX)) EUB0000695a PKN2. As to conditions: at 100 nM.
The target in assay [2] is T1, Serine/threonine-protein kinase 36 (Homo sapiens) (UniProt Q9NRP7).
T1 sequence (whole entry): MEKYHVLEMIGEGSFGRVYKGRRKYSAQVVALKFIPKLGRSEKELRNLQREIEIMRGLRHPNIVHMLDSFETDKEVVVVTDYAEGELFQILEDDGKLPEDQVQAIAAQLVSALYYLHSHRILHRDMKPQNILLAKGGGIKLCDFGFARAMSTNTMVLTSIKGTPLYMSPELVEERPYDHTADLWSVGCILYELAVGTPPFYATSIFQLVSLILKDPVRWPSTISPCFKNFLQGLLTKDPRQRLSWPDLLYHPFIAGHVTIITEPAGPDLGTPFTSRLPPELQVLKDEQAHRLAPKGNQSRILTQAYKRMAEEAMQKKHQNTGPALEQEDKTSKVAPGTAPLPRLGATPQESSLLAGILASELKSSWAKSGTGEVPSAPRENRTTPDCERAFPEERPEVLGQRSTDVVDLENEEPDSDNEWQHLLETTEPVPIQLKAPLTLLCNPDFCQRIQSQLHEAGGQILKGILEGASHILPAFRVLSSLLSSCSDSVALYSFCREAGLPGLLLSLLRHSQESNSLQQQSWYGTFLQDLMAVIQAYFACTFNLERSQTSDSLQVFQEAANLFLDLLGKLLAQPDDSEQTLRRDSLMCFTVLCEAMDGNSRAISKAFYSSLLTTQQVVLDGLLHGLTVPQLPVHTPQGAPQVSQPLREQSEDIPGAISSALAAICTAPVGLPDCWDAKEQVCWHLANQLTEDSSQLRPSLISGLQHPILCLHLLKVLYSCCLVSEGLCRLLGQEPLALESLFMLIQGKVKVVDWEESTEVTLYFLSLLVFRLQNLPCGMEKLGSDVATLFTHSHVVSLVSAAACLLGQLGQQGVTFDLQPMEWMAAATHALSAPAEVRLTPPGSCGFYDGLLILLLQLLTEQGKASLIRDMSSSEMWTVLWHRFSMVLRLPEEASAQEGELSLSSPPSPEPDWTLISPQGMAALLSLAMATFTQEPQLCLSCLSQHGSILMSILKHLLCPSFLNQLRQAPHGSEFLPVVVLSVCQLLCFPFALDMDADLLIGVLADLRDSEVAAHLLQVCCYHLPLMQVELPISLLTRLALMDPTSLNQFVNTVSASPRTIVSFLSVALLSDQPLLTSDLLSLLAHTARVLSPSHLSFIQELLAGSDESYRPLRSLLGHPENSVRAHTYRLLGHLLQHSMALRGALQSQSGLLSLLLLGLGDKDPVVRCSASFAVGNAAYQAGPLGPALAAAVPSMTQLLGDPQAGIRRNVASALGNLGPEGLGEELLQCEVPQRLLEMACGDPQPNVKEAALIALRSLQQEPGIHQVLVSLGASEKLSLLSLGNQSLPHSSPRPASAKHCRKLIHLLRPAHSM
The experiment in a line: Selectivity interaction (KinomeScan (DiscoverX)) EUB0000695a STK36. As to conditions: at 100 nM.

Assay [3] addresses T2, Cyclin-dependent kinase 11A (Homo sapiens) (UniProt Q9UQ88).
T2 sequence (whole entry): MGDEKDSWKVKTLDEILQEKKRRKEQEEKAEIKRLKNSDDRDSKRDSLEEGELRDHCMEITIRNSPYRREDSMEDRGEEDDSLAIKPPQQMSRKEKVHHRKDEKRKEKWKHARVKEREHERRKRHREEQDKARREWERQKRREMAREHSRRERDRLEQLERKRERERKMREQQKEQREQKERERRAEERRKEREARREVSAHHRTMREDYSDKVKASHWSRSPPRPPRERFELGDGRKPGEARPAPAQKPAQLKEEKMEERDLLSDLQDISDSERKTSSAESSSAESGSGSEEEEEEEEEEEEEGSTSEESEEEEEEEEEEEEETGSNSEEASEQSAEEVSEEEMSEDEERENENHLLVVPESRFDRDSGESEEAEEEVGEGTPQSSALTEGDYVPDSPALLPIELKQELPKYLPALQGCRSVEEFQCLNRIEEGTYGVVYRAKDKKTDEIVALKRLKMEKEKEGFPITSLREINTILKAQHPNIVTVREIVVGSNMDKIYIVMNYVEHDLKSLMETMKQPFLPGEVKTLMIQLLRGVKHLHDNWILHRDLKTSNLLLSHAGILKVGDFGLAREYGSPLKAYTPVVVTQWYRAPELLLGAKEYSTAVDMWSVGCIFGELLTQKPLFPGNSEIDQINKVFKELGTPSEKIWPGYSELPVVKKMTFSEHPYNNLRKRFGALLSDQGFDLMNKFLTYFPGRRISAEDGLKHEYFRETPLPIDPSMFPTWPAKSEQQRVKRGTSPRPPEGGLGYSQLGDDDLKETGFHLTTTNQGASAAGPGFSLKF
Put plainly: Selectivity interaction (KinomeScan (DiscoverX)) EUB0000607a CDK11A. As to conditions: at 10 µM.

The target in assay [4] is T3, Tyrosine-protein kinase receptor TYRO3 (Homo sapiens) (UniProt Q06418).
T3 sequence (whole entry): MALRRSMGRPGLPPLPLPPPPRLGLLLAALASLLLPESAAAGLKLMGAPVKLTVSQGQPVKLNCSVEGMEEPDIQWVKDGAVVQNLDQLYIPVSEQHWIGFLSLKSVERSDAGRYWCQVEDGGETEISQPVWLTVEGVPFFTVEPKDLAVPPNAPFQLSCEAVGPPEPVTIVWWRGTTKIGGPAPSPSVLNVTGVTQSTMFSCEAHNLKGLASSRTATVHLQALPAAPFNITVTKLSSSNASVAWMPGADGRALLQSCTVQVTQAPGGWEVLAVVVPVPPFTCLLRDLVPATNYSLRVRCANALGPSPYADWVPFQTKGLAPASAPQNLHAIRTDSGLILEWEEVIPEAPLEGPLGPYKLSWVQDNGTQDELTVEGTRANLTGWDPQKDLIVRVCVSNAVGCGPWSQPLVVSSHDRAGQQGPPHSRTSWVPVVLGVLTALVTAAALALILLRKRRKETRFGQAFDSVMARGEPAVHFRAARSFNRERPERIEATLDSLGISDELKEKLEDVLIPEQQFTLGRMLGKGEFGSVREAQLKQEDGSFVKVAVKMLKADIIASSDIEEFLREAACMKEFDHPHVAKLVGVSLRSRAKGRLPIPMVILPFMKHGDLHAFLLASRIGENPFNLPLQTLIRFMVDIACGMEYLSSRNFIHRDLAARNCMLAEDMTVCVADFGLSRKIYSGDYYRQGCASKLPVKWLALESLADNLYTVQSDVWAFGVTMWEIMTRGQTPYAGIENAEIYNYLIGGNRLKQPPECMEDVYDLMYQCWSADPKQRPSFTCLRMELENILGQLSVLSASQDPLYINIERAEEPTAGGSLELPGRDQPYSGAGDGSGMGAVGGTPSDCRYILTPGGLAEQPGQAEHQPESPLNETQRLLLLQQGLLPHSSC
The experiment in a line: Selectivity interaction (KinomeScan (DiscoverX)) EUB0000618a TYRO3. As to conditions: at 10 µM.

Chain of Serine/threonine-protein kinase N2 (Q16513 whole entry, looked up): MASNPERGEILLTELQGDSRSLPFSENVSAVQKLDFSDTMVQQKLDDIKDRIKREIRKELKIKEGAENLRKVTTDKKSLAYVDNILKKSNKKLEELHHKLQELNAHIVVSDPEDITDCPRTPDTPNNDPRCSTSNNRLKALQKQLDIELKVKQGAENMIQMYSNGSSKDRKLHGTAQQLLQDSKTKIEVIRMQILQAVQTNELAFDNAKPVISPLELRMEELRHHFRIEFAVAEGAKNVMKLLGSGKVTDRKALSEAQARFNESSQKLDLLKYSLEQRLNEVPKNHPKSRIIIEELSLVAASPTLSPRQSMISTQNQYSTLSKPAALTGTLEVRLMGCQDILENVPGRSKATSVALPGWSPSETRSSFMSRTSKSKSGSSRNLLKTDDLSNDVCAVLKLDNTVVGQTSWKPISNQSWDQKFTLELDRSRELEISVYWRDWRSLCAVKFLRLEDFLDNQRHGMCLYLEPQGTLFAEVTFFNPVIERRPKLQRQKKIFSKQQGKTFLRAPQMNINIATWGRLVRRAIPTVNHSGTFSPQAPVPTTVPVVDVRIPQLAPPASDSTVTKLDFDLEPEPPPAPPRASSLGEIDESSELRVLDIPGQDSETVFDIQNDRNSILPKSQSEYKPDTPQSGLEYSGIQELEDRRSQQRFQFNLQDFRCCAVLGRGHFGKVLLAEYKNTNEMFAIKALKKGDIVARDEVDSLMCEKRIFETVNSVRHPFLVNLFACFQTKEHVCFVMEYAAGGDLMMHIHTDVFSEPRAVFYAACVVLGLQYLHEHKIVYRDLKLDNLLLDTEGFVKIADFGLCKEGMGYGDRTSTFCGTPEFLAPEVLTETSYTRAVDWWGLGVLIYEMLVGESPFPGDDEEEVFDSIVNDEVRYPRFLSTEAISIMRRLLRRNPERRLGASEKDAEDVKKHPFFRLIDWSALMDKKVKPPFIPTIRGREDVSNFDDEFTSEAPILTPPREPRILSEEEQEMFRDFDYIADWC

Regarding `Cc1cc(F)c(C(=O)Nc2cccc(-c3nncn3C(C)C)n2)cc1-n1cnc(C2CC2)c1`, the % of control was determined as 63% in assay [1] and 100% in assay [2].
Take `CNC(=O)Nc1ccc(-c2nc(N3CC4CCC(C3)O4)c3cnn(C4CCC5(CC4)OCCO5)c3n2)cc1`: in assay [3], the % of control came out at 100%.
In the case of `O[C@H]1CC[C@H](Nc2ncc3nc(Nc4c(F)cc(F)cc4F)n([C@H]4CCOC4)c3n2)CC1`, the % of control in assay [4] was 100%.
